{
  "source": "ChEMBL document CHEMBL4813930",
  "about": "“Cytotoxic Manoalide-Type Sesterterpenes from the Sponge Luffariella variabilis Collected in the South China Sea” (J Nat Prod, 2021)",
  "key": {"ASPC1": {"system": "ASPC1", "assay": "Cytotoxicity against human ASPC1 cells by SRB assay", "format": "functional, cell-based"}, "K562": {"system": "K562", "assay": "Cytotoxicity against human K562 cells by MTT assay", "format": "functional, cell-based"}, "MDA-MB-231": {"system": "MDA-MB-231", "assay": "Cytotoxicity against human MDA-MB-231 cells by SRB assay", "format": "functional, cell-based"}, "[1]": {"assay": "Cytotoxicity against human NCI-H69AR cells by SRB assay", "format": "functional, cell-based"}, "L02": {"system": "L02", "assay": "Cytotoxicity against human L02 cells by SRB assay", "format": "cell-based"}},
  "data": [
    {"molecule": "COC(=O)Cc1cc(CC/C=C(\\C)CC/C=C(\\C)CCC=C(C)C)ccc1O", "values": [
      {"measurement": "IC50", "setting": "ASPC1", "result": "> 30", "unit": "µM"},
      {"measurement": "IC50", "setting": "K562", "result": 15, "unit": "µM"},
      {"measurement": "IC50", "setting": "MDA-MB-231", "result": "> 30", "unit": "µM"},
      {"measurement": "IC50", "setting": "[1]", "result": "> 30", "unit": "µM"},
      {"measurement": "IC50", "setting": "L02", "result": "> 30", "unit": "µM"}
    ]},
    {"molecule": "COc1cccc2c1C(=O)c1c(O)c3c(c(O)c1C2=O)C[C@@](O)(C(=O)CO)C[C@@H]3O[C@H]1C[C@H](N)[C@H](O)[C@H](C)O1", "note": "[DOXORUBICIN]", "values": [
      {"measurement": "IC50", "setting": "ASPC1", "result": "< 1", "unit": "µM"},
      {"measurement": "IC50", "setting": "K562", "result": "< 1", "unit": "µM"},
      {"measurement": "IC50", "setting": "MDA-MB-231", "result": "< 1", "unit": "µM"},
      {"measurement": "IC50", "setting": "[1]", "result": "< 1", "unit": "µM"},
      {"measurement": "IC50", "setting": "L02", "result": "< 1", "unit": "µM"}
    ]}
  ]
}
